In one test the target is T1, JAK2 (Homo sapiens, UniProt O60674).
T1 construct: made in house
As to the kind of experiment: Competition binding assay, JAK2. An excerpt: (§1) Competition Binding Assay to Determine Binding Constants (Kd) of the Compounds Against JAK Kinases
(§2) Competition binding assays used herein were developed, validated and performed as described in Fabian et al., Nature Biotechnology 2005, 23,329-336. Kinases were produced as fusions to T7 phage (See, Fabian et al. or WO04/015142) or alternatively, the kinases were expressed in HEK-293 cells and subsequently tagged with DNA for PCR detection (See, WO08/005310). For the binding assays, streptavidin-coated magnetic beads were treated with biotinylated affinity ligands for 30 min at rt to generate affinity resins. The liganded beads were blocked with excess biotin and washed with blocking buffer (SeaBlock (Pierce), 1% BSA, 0.05% Tween 20, 1 mM DTT) to remove unbound ligand and to reduce non-specific binding. Binding reactions were assembled by combining kinase, liganded affinity beads, and test compounds in 1× binding buffer (20% SeaBlock, 0.17×PBS, 0.05% Tween 20, 6 mM DTT). Test compounds were prepared as 100× stocks in DMSO and rapidly diluted into the aqueous environment. DMSO was added to control assays lacking a test compound. Primary screen interactions were performed in polypropylene 384-well plates in a final volume of 34 μL, while Kd determinations were performed in polystyrene 96-well plates in a final volume of 135 μL. The assay plates were incubated at room temperature with shaking for 1 hour, long enough for binding reactions to reach equilibrium, and the affinity beads were washed extensively with wash buffer (1× PBS, 0.05% Tween 20) to remove unbound protein. The beads were then resuspended in elution buffer (1× PBS, 0.05% Tween 20, 2 μM non-biotinylated affinity ligand) and incubated at room temperature with shaking for 30 min. The kinase concentration in the eluates was measured by quantitative PCR. Each kinase was tested individually against each compound. Kds were determined using eleven serial threefold dilutions. A selectivity score, which is a quantitative measure of selectivity of a compound against a panel of enzymes, may be calculated for a compound by dividing the number of enzymes for which a compound meets a set criteria, (for example, a binding constant of 100 nM or less), by the total number of enzymes tested.

A further test deals with T2, TYK2 (Homo sapiens, UniProt P29597).
T2 construct: made in house
In words: Competition binding assay, TYK2.
Description: as §1, §2

Another test concerns the target T3, JAK3 (Homo sapiens, UniProt P52333).
T3 construct: made in house
T3 sequence (P52333 1-1124): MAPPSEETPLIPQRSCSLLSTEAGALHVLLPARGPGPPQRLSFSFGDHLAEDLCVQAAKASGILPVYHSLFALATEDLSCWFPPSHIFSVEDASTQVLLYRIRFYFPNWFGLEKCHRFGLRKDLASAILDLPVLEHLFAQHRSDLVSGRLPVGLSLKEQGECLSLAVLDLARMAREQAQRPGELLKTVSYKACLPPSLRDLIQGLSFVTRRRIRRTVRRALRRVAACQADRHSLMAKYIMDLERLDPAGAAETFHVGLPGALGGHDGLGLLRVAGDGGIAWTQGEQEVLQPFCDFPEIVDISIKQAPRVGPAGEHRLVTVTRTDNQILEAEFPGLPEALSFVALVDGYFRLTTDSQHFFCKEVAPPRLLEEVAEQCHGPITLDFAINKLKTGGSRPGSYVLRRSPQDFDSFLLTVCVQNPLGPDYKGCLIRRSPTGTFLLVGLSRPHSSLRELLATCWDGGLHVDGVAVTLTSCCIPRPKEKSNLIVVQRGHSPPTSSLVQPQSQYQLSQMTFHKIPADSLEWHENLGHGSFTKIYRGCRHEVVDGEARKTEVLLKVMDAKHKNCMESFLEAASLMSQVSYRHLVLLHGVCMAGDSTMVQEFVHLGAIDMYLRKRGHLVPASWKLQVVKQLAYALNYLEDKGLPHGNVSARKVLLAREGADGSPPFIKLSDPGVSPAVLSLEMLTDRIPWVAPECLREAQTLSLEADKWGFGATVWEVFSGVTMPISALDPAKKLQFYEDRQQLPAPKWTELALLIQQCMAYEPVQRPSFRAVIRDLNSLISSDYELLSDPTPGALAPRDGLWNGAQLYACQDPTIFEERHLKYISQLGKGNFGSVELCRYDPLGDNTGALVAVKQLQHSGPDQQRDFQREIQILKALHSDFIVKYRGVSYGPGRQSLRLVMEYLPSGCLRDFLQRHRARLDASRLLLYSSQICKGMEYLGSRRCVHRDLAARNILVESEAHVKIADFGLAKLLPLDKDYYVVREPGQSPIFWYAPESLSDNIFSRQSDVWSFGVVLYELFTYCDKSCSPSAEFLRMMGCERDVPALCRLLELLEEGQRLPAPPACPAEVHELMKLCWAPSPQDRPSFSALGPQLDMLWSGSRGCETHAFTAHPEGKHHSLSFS
As to the kind of experiment: Competition binding assay, JAK3.
Description: as §1, §2

Test [1] concerns distinct kinases tested excluding mutant variants, typically 359 or 386 kinases. In words: Kinase selectivity score from competition binding panel. The settings on record: compound at 10 μM; fraction of kinases with inhibition of 90% or greater. As for the experimental part: as §2
Test [2] deals with GM-CSFR/JAK2/STAT5 pathway in CSTF-1 cells. In words: CSTF-1 cell-based reporter assay (beta-lactamase, GM-CSF stimulated). Details: species or system human. Particulars: Homo sapiens; GM-CSF at 2 ng/mL, 4 hours; read-out: Cell Assay: CS TF-1 reporter assay IC50. As for the experimental part: CSTF-1 Cell-Based Reporter Assay
CSTF-1 cells are derived from the human erythroleukemia cell line that is growth dependent on GM-CSF and has an intact GM-CSFR/JAK2/STAT5 pathway. The cell line contains stably integrated beta-lactamase reporter gene under the control of the […] (irf 1) response element recognized by the activated transcription factor STATS. csTF-1 cells (Invitrogen K1219) were washed with assay media (97% OPTIMEM/ 0.5% dialyzed FBS/0.1 mM NEAA/1 mM Na pyr/P/S) and seeded in the same media at 5×10^5 cell/mL in T150 flask. After 16 hour incubation, cells were seeded at 2×10^5 cell/well in 50 μl volume, into Costar, clear bottom, 96-well assay plates. Serial dilutions of compounds were added to the plates with final DMSO concentration at 0.5% and GM-CSF at 2 ng/mL and the plates were then incubated at […] and 5% CO2 for 4 hours. The plates were brought to room temperature before adding Substrate Mixture according to manufacturer's protocol (Invitrogen, Catalog #K1085). The assay plates containing the substrate mixture were incubated in the dark at room temperature for 2 hours. Blue and green fluorescence was measured with excitation at 409 nm and emission at 460 nm (for blue) and excitation at 409 nm and emission at 530 nm (for green) using Spectra Max Gemini EM.

The Kd is the concentration at which binding is half-saturated. For orientation: IC50 means the midpoint of a concentration-inhibition curve.

T1 sequence (O60674 whole entry): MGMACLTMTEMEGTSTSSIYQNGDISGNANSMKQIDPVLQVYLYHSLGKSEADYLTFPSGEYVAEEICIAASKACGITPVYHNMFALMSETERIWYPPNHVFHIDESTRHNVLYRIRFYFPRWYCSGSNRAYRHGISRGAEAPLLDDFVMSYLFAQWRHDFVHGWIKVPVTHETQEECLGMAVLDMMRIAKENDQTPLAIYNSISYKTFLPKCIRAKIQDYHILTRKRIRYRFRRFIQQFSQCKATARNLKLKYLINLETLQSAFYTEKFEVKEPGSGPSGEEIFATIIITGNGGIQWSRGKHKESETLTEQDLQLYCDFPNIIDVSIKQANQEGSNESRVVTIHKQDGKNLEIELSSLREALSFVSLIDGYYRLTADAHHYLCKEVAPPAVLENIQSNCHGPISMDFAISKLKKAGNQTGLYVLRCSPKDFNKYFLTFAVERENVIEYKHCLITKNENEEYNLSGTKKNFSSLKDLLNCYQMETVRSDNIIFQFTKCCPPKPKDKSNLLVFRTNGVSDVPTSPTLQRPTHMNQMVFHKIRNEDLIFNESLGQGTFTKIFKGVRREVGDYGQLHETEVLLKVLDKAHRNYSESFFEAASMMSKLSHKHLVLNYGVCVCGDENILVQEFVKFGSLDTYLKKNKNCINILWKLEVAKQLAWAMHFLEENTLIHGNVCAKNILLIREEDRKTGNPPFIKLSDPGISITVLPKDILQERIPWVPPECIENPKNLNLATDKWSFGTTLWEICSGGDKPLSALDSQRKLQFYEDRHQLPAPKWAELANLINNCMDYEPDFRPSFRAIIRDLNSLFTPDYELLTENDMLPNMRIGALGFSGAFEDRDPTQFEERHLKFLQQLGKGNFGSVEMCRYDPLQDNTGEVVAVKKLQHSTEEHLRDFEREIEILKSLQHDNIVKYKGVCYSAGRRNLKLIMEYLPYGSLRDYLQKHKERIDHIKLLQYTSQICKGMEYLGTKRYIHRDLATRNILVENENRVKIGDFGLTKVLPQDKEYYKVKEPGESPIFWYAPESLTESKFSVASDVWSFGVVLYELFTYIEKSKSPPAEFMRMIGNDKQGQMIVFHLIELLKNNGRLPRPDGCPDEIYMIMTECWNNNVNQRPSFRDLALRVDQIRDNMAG
T2 sequence (P29597 whole entry): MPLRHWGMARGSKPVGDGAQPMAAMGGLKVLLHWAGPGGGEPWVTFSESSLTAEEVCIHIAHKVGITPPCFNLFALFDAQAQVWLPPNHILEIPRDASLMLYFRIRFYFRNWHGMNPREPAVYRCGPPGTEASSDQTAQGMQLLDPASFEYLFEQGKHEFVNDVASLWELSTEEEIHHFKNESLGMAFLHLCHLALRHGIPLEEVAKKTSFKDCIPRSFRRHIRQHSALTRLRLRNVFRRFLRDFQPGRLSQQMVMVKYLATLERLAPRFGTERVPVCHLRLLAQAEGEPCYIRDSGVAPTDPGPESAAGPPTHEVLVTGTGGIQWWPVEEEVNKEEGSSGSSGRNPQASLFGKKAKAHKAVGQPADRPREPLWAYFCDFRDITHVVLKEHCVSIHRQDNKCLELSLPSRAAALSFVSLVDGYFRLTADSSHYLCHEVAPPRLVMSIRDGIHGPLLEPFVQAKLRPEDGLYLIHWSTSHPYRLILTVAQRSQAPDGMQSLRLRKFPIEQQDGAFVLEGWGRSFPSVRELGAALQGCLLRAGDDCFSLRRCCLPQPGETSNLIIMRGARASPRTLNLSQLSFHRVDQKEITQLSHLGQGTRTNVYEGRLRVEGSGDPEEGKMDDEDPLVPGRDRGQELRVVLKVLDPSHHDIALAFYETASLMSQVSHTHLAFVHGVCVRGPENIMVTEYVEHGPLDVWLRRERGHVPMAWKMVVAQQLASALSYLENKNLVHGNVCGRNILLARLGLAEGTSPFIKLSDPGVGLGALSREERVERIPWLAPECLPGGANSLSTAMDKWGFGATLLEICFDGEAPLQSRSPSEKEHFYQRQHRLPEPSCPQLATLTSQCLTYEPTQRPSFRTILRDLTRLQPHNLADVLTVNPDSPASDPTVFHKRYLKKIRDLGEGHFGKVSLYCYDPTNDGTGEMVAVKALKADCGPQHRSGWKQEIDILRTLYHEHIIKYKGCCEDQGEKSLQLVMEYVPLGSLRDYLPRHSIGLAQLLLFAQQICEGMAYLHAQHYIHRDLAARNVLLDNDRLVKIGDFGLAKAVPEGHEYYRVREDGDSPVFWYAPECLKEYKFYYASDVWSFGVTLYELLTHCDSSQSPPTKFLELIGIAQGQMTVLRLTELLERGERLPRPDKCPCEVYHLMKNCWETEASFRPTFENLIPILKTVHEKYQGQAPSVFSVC

Regarding `Cc1cc(Nc2nc(C(F)(F)c3ccc(F)cc3)nc3sccc23)n[nH]1` [Example 1, 2-(difluoro(4-fluorophenyl)methyl)-N-(5-methyl-1H-pyrazol-3-yl)thieno[2,3-d]pyrimidin-4-amine], the Kd on JAK2 is ≤ 1 nM; on TYK2 it was ≤ 10 nM; on JAK3, ≤ 10 nM. For the same compound, the “S-Score: S(10) at 10 μM” value in test [1] was “B (0.3 < B ≦ 0.4)”. Further, the IC50 in test [2] is ≤ 100 nM.

For the compound `Fc1ccc(C(F)(F)c2nc(Nc3cc[nH]n3)c3ccsc3n2)cc1` [Example 2, 2-(difluoro(4-fluorophenyl)methyl)-N-(1H-pyrazol-3-yl)thieno[2,3-d]pyrimidin-4-amine], the Kd on JAK2 is ≤ 1 nM; on TYK2, ≤ 10 nM; on JAK3 it was 10 to 100 nM. Also, in test [1], the “S-Score: S(10) at 10 μM” value is “A (A ≦ 0.3)”. Further, the IC50 in test [2] is ≤ 100 nM.

Regarding `Cc1cc(Nc2nc(C(=O)c3ccc(F)cc3)nc3sccc23)n[nH]1` [Example 3, (4-fluorophenyl)(4-(5-methyl-1H-pyrazol-3-ylamino)thieno[2,3-d]pyrimidin-2-yl)methanone], the values for the Kd on JAK2, on TYK2 and at JAK3 were ≤ 1 nM, 10 to 100 nM and ≤ 10 nM, respectively. Also, in test [1], the “S-Score: S(10) at 10 μM” value is given as “B (0.3 < B ≦ 0.4)”. For the same compound, the IC50 in test [2] is ≤ 100 nM.

`Cc1cc(Nc2nc(C(=O)c3ccc(F)cc3)nc3ccsc23)n[nH]1` [Example 5, (4-fluorophenyl)(4-(5-methyl-1H-pyrazol-3-ylamino)thieno[3,2-d]pyrimidin-2-yl)methanone]: the Kd on JAK2 was ≤ 1 nM; at TYK2, 10 to 100 nM; on JAK3, ≤ 10 nM. For the same compound, the “S-Score: S(10) at 10 μM” value in test [1] is “A (A ≦ 0.3)”. For the same compound, in test [2], the IC50 was ≤ 100 nM.

Consider `Cc1cc(Nc2nc(C(F)(F)c3ccc(F)cc3)nc3ccsc23)n[nH]1` [Example 7, 2-(difluoro(4-fluorophenyl)methyl)-N-(5-methyl-1H-pyrazol-3-yl)thieno[3,2-d]pyrimidin-4-amine], for which the results for the Kd at JAK2, on TYK2 and at JAK3 were ≤ 1 nM, ≤ 10 nM and ≤ 10 nM, respectively. The “S-Score: S(10) at 10 μM” value in test [1] is recorded as “C (0.4 < C ≦ 0.5)”. The IC50 in test [2] was ≤ 100 nM.

As to `Fc1ccc(C(F)(F)c2nc(Nc3cc[nH]n3)c3sccc3n2)cc1` [Example 8, 2-(difluoro(4-fluorophenyl)methyl)-N-(1H-pyrazol-3-yl)thieno[3,2-d]pyrimidin-4-amine], the Kd was ≤ 1 nM at JAK2, ≤ 10 nM on TYK2 and 10 to 100 nM at JAK3. In test [1], the “S-Score: S(10) at 10 μM” value is given as “A (A ≦ 0.3)”. The IC50 in test [2] was ≤ 100 nM.

Turning to `Cc1cc(Nc2nc(C(=O)c3ccc(F)cc3)nc3scc(C)c23)n[nH]1` [Example 10, (4-fluorophenyl)(5-methyl-4-(5-methyl-1H-pyrazol-3-ylamino)thieno[2,3-d]pyrimidin-2-yl)methanone], the dissociation constant (Kd) on JAK2 is > 10 nM; on TYK2, > 100 nM; at JAK3 it was > 100 nM. Further, the “S-Score: S(10) at 10 μM” value in test [1] is listed as “A (A ≦ 0.3)”. Also, the 50% inhibitory concentration (IC50) in test [2] is > 500 nM.

On to `Cc1csc2nc(C(=O)c3ccc(F)cc3)nc(Nc3cc[nH]n3)c12` [Example 12, (4-(1H-pyrazol-3-ylamino)-5-methylthieno[2,3-d]pyrimidin-2-yl)(4-fluorophenyl)methanone], for which the Kd on JAK2 is > 10 nM; at TYK2 it was > 100 nM; at JAK3, > 100 nM. The “S-Score: S(10) at 10 μM” value in test [1] is recorded as “A (A ≦ 0.3)”. In addition, in test [2], the IC50 was > 500 nM.

On to `Cc1cc(Nc2nc(C(F)(F)c3ccc(F)cc3)nc3sc(C)cc23)n[nH]1` [Example 14, 2-(difluoro(4-fluorophenyl)methyl)-6-methyl-N-(5-methyl-1H-pyrazol-3-yl)thieno[2,3-d]pyrimidin-4-amine], for which the Kd at JAK2 was ≤ 1 nM; at TYK2, ≤ 10 nM; on JAK3, 10 to 100 nM. For the same compound, in test [1], the “S-Score: S(10) at 10 μM” value was “A (A ≦ 0.3)”. Besides, in test [2], the IC50 is ≤ 100 nM.

`Cc1cc2c(Nc3cc[nH]n3)nc(C(F)(F)c3ccc(F)cc3)nc2s1` [Example 15, 2-(difluoro(4-fluorophenyl)methyl)-6-methyl-N-(1H-pyrazol-3-yl)thieno[2,3-d]pyrimidin-4-amine]: the Kd on JAK2 is 1 to 10 nM; on TYK2, > 100 nM; at JAK3, 10 to 100 nM. Moreover, in test [1], the “S-Score: S(10) at 10 μM” value is on record as “A (A ≦ 0.3)”. The 50% inhibitory concentration (IC50) in test [2] is 100 to 500 nM.

For the compound `COC(c1ccc(F)cc1)c1nc(Nc2cc(C)[nH]n2)c2sccc2n1` (centres unmarked) [Example 19, 2-((4-fluorophenyl)(methoxy)methyl)-N-(5-methyl-1H-pyrazol-3-yl)thieno[3,2-d]pyrimidin-4-amine], the Kd on JAK2 is 1 to 10 nM; on TYK2 it was 10 to 100 nM; on JAK3, 10 to 100 nM. In addition, the “S-Score: S(10) at 10 μM” value in test [1] is given as “A (A ≦ 0.3)”. The IC50 in test [2] is 100 to 500 nM.

With `Cc1cc(Nc2nc(C(=O)c3ccc(F)cc3)nc3cc(C)sc23)n[nH]1` [Example 20, (4-fluorophenyl)(6-methyl-4-(5-methyl-1H-pyrazol-3-ylamino)thieno[3,2-d]pyrimidin-2-yl)methanone], the Kd on JAK2 is ≤ 1 nM; at TYK2 it was 10 to 100 nM; on JAK3, ≤ 10 nM. Further, the “S-Score: S(10) at 10 μM” value in test [1] is “B (0.3 < B ≦ 0.4)”. Also, the IC50 in test [2] was ≤ 100 nM.

Regarding `Cc1cc(Nc2nc(C(=O)c3ccc(F)cc3)nc3c(C)csc23)n[nH]1` [Example 22, (4-fluorophenyl)(7-methyl-4-(5-methyl-1H-pyrazol-3-ylamino)thieno[3,2-d]pyrimidin-2-yl)methanone], the figures for the Kd on JAK2, on TYK2 and at JAK3 were 1 to 10 nM, > 100 nM and > 100 nM, respectively. The “S-Score: S(10) at 10 μM” value in test [1] is “A (A ≦ 0.3)”. Also, the IC50 in test [2] lay within 100 to 500 nM.

These data come from US20130317045A1, “THIENOPYRIDINE AND THIENOPYRIMIDINE COMPOUNDS AND METHODS OF USE THEREOF” (AMBIT BIOSCIENCES CORPORATION, priority 2010, published 2013).
